Patent US6458387B1, “Sustained release microspheres” (priority 1999, dated 2002)

Legend:
[1] = HSA microspheres, carbonyl diimidazole coupling
Procedure: Carbonyl diimidazole (100 mg, Sigma Chemical Co., St. Louis, Mo.) was added to a solution of 36 mg of the antiviral drug Virazole Registered TM (ICN Pharmaceuticals, Inc., Costa Mesa, Calif.) in 0.2 ml of dimethylformamide (DMF). The resulting mixture was allowed to stand at room temperature for four hours. To the mixture was added a mixture of 0.2 ml of human serum albumin (HSA) (25%, Armour Pharmaceutical Co., Collegeville, Pa.) and 0.4 ml of deionized water. The mixture was incubated for 30 minutes at room temperature, for 30 minutes at 37° C., and for 30 minutes at 58° C. and then cooled to room temperature. Particles were isolated by centrifugation, washed with deionized water three times and resuspended in 20 ml of water.

[2] = In vitro release from leuprolide acetate/HSA microspheres (Example 5); assay type: physicochemical; details: leuprolide acetate/HSA/dextran sulfate/PEG/PVP microspheres
Procedure: A 0.010 mL aliquot of a solution of 10-100 mg/mL leuprolide acetate in water (LHRH, TAP Pharmaceuticals, Deerfield, Ill.) was added to 0.168 mL of a 2-10% (weight/volume) solution of dextran sulfate in water (average molecular weight 500 kDa), and the solution was thoroughly mixed. To the leuprolide/dextran solution was added a 0.856 niL aliquot of a solution containing 25% (weight/volume) polyethylene glycol, having an average molecular weight of 3.35 kDa (Spectrum, Gardena, Calif.), and 25% (weight/volume) polyvinylpyrrolidone, having an average molecular weight of 40 kDa, in an aqueous solution of 0.1M sodium acetate, pH 5.5. The resulting solution was thoroughly mixed and allowed to stand for up to 30 minutes. A 0.25 mL aliquot of a 20% (weight/volume) solution of human serum albumin (Sigma Chemical Co., St. Louis, Mo.) in water was then added to the solution. The final solution was thoroughly mixed and placed in a water bath at between 70° C. and 90° C. for a period of time between 30 minutes and 3 hours.
In vitro release of leuprolide acetate was measured by centrifugation of microspheres and resuspension in a phosphate buffered saline release medium.

[3] = set-up: species or system dogs; details: dog
Procedure: The microspheres were formed and precipitated from solution. […] Estradiol was then loaded into human serum albumin microspheres at 3 different weight percent loadings. The estradiol was dissolved in ethyl alcohol and incubated in the presence of the albumin microspheres. […] The 10% by weight estradiol containing microspheres contained 1 mg of estradiol and 8.33 mg of Human Serum Albumin (HSA). The 49% by weight estradiol containing microspheres contained 8.15 mg of estradiol and 8.33 mg of HSA. The 77% by weight estradiol containing microspheres contained 27.68 mg of estradiol and 8.33 mg of HSA
The microspheres were injected into five dogs and the resulting serum concentrations were determined by radioimmuno assay for estradiol.

[4] = human serum albumin microspheres; 0.01M, 0.1M or 1M zinc sulfate
Procedure: Nafarelin acetate (Roche Laboratories, Nutley, N.J.) was dissolved in deionized water to produce a 10 mg/ml solution.
To 1 mg of nafarelin acetate was added 10 mg of the human serum albumin microspheres. The mixture was vortexed and mixed for 16 hours at 4° C. A 3M ammonium sulfate solution was added to the mixture to a final concentration of 0.5M and vortexed and mixed for 15 minutes at ambient temperature.
The mixtures were centrifuged, supernatant decanted and pellet resuspended in deionized water three times to wash the microspheres.

SMILES	percentage of drug incorporated into the particles [1]	effect of additive on release of protein and peptide from the microspheres [2]	other results
CO[C@H]1/C=C/O[C@@]2(C)Oc3c(C)c(O)c4c(O)c(c(/C=N/N5CCN(C)CC5)c(O)c4c3C2=O)NC(=O)/C(C)=C\C=C\[C@H](C)[C@H](O)[C@@H](C)[C@@H](O)[C@@H](C)[C@H](OC(C)=O)[C@@H]1C [Rifampicin TM, 3-[4-methylpiperazinyliminomethyl] rifamycin]	greater than 6.8%	–	–
NC(=O)c1ncn([C@@H]2O[C@H](CO)[C@@H](O)[C@H]2O)n1 [Virazole Registered TM]	10%	–	–
CCCCCCCC(=O)O [caprylic acid]	–	retarded the release	–
C[C@]12CC[C@@H]3c4ccc(O)cc4CC[C@H]3[C@@H]1CC[C@@H]2O [estradiol control, estradiol]	–	–	half life of estradiol in vivo [3]: shortest half life
O=S(=O)([O-])[O-].[Zn+2] [zinc sulfate]	–	retarded the release	effect of additive on rate of release of nafarelin acetate [4]: reduced the rate of release
